Measurements taken from PubChem BioAssay AID540338 (Southern Research Specialized Biocontainment Screening …, 2011).
Active and inactive are the calls of the source.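 The calls were made as follows: active = cell viability below 70% of untreated cell signal at any tested dose; inactive = the rest.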

Tested on: HEp-2 viability, luminescence (CellTiter-Glo)
Assay: viability loss in uninfected HEp-2 cells – cell-based, synthesized compounds, set 12, cytotoxicity control for RSV antiviral project, dose response (AID 540338)

| Compound | CC50 |
| --- | --- |
| COCCCNC(=O)c1ccc(Cn2c(=O)c3ccccc3n(CCc3ccc(Br)cc3)c2=O)cc1 | < 1.6 µM |
| COCCCNC(=O)c1ccc(Cn2c(=O)c3ccccc3n(CC3CCCCC3)c2=O)cc1 | > 200 µM (inactive) |
| COCCCNC(=O)c1ccc(Cn2c(=O)c3ccccc3n(CCc3ccc(C)cc3)c2=O)cc1 | < 1.6 µM |
| COCCCNC(=O)c1ccc(Cn2c(=O)c3ccccc3n(CCc3ccc(C(F)(F)F)cc3)c2=O)cc1 | 116 µM |
| COCCCNC(=O)c1ccc(Cn2c(=O)c3ccccc3n(Cc3ccc(C)cc3)c2=O)cc1 | 69 µM |
| COCCCNC(=O)c1ccc(Cn2c(=O)c3ccccc3n(Cc3ccccn3)c2=O)cc1 | 16 µM |
| COCCCNC(=O)c1ccc(Cn2c(=O)c3ccccc3n(Cc3cccnc3)c2=O)cc1 | 8 µM |
